Measured values reported in ChEMBL document CHEMBL3507680, “University of Dundee, Gates Library screen for HepG2 cell viability”.

Experiment: Human HepG2 cell viability assay in 384 well format
Type: toxicity, cell-based
Set-up: dose 125 nL, time 70.5 hour; cytotoxicity at 70.5 h: concentration not given beside the values
Settings: HepG2 cells, read-out: Inhibition

Structure (SMILES)	cytotoxicity at 70.5 h [%]
O=C(O)c1cc2c(nc1-c1ccncc1)CCN(Cc1ccoc1)CC2	-7.98
CO[C@H]1CCN(Cc2nccs2)C[C@@H]1Cc1ccccc1	-0.233
Cc1ccc(N2C[C@H]3OCC[C@H]3[C@H](C(=O)NC3CCC3)C2)nn1	-13
CN(C)C(=O)c1cnc2n1CCN(Cc1ccncc1)C2	19.9
COCCC(=O)N1CCC2(COCc3cnc(N(C)C)nc32)C1 (centres undefined)	-8.65
CN1CCCC2(CC1)CCN(C(=O)CCc1ccccc1F)CC2	-6.92
CSc1cccc(CN(C)C(=O)c2cccc(C3CCCNC3)c2)c1 (centres undefined)	-2.36
CN(CCCC1CCCO1)C(=O)c1cccc(C#N)c1 (centres undefined)	-5.92
O=C(N[C@H]1CC[C@H](O)CC1)c1ccc2nc(-c3ccc(F)cc3)cn2c1	-9.74
COc1ccc(CN2CC[C@@]3(O)CCCC[C@H]3C2)cc1C(=O)O	8.88
CC(C)O[C@H]1CN(C(=O)CCN2CCCCO2)C[C@@H]1O	11.2
Cc1cc(CC(C)Nc2ncc(C)c(N(C)C)n2)[nH]n1 (centres undefined)	-1.49
CC(C)Cc1noc(CN(C)c2ncccn2)n1	-3.77
CCc1cc(NCCc2cccnc2)n2nc(C)c(C)c2n1	-5.81
CCc1ncc(CN2C[C@H]3CC[C@@H]2CN(C(=O)C2CCC2)C3)cn1	-6.96
CCCN1CCCn2nc(CNS(=O)(=O)c3cnn(CC)c3)cc2C1	-3.06
COc1ccccc1CN1C(=O)O[C@@H]2CN(c3nc(C)cnc3C)C[C@@H]21	-3.32
CCOc1ccccc1CC(=O)N1C[C@H](C2CC2)[C@@H](N)C1	-0.519
CCc1nnc(CN(C)c2nccc(N3CCCC(O)C3)n2)o1 (centres undefined)	27.2
Cc1cc(F)c(C(C(=O)O)N2CCN(Cc3ccccn3)CC2)cc1Cl (centres undefined)	-6.6
CCc1cc(NC(CCO)c2ccc(OC)cc2)n2nccc2n1 (centres undefined)	-0.73
C[C@@H]1CN(C2Cc3ccccc3C2)CC[C@@]1(O)C1CCOCC1	-10.1
CN(CC(=O)N1CC(C)(C)[C@@](C)(O)C1)Cc1ccncc1	-6.29
CCCn1cc(-c2cc(C(=O)N(C)C)c3ccc(OC)cc3n2)cn1	-3.58
CC(C)C1CN(S(C)(=O)=O)CCCN1Cc1ccc(F)cc1 (centres undefined)	-3.17
CC(C)[C@H]1CN(CC2CCC2)C[C@@H]1NC(=O)c1ccc(=O)[nH]c1	3.69
Cc1cc(NCCc2nc(C)c[nH]2)nc(-c2ccccc2O)n1	-1.72

Structure (SMILES)	cytotoxicity at 70.5 h [%]
CN(C)c1ccc(C(=O)N2CCCN(C3CCCCC3)CC2)cn1	-7.27
CN(Cc1ccc(-n2cccn2)cc1)Cc1cnc(N(C)C)nc1	-8.45
CC(C)=CCN1CCN(C(=O)c2cc(C(C)C)on2)[C@H]2CS(=O)(=O)C[C@H]21	-8.01
O=C1NC2(CCN(Cc3ccccc3Cl)CC2)CC1c1ccccc1 (centres undefined)	-9.33
CCCN1CCC(Cc2noc(-c3ncccc3C)n2)CC1	-5.81
OC1(CN2CCCC2)COCCN(c2ncnc3[nH]cnc23)C1 (centres undefined)	-0.684
CC(C)=CCN1CCC(c2nnc(CN3CCN(C)CC3)n2C)CC1	35
O=C1CCOCCN1Cc1ccc(Cl)c(Cl)c1	33.5
Cc1ccccc1OC1CN(Cc2c(C)nc3ccccn23)C1	26.8
O=C(NCC1(O)CCCCC1)c1coc(COc2cccc(F)c2)n1	1.09
Fc1cccc(-c2n[nH]cc2-c2nc(CN3CCOCC3)no2)c1	15.5
CSc1ccc(C(=O)N2C[C@H]3CC[C@@H]2CN(Cc2cccnc2)C3)cc1	-5.35
O=C(C1CC(=O)N(C2CC2)C1)N1CCC(Oc2ccccc2Cl)CC1 (centres undefined)	0.0694
O=C(NCC1CCCN(C(=O)NCCc2ccccc2)C1)c1ccco1 (centres undefined)	-0.863
Cc1nnc(NCCn2nc(C)c(Cl)c2C)o1	-6.66
Cc1nnc(SCCNC(=O)CC2CCc3ccccc32)s1 (centres undefined)	-4.12
CCCn1nccc1S(=O)(=O)N1CCC2(CCCN(C(C)C)C2=O)C1 (centres undefined)	17.4
COc1cccc(-c2cc(C(=O)NCCCn3cnnc3)[nH]n2)c1	-11.1
CCOc1cc(CNCc2nc(C)cc(=O)[nH]2)c(Cl)cc1OC(C)C	-3.61
O=C1COc2ccccc2N1CCCn1cnnn1	-9.54
O=C1CCC2(CCCN(C(=O)c3ncc[nH]3)C2)CN1CCc1c[nH]cn1 (centres undefined)	13.6
CN1CCC(N(C)CCC(=O)N2CCC(Oc3ccc(Cl)cc3)CC2)C1 (centres undefined)	-5.97
Cn1cc(Cl)c(CN(Cc2ccsc2)CC2CCCO2)n1 (centres undefined)	-5.58
COCCN1CCC(C(=O)N(C)Cc2c[nH]c3ccc(C)cc23)C1 (centres undefined)	-8.11
OC[C@H]1CN(Cc2c(Cl)cncc2Cl)C[C@H]1CN1CCCC1	-9.31
CS(=O)(=O)c1ncc(CN2CCN3CCCC3C2)n1CC1CCCCC1 (centres undefined)	-6.4
Cc1cc(NC(=O)CNCc2csc(-c3cnccn3)n2)ccc1Cl	-6.43
